From patent US6498125B2, “Pyridine ketones useful as herbicides” (Syngenta Participations AG, priority 1998, dated 2002)

How the values were obtained:
[1] = system: Monocotyledonous and dicotyledonous test plants; assay: Example B1: pre-emergence herbicidal action, 2 kg of AS/ha; format: in vivo; conditions: 3 weeks, scale 1-9; for pre-emergence action rating, Avena: test plant Avena; for pre-emergence action rating, Cyperus: test plant Cyperus; for pre-emergence action rating, Setaria: test plant Setaria; for pre-emergence action rating, Sinapis: test plant Sinapis; for pre-emergence action rating, Solanum: test plant Solanum; for pre-emergence action rating, Stellaria: test plant Stellaria
Protocol: Monocotyledonous and dicotyledonous test plants are sown in standard soil in plastic pots. Immediately after sowing, the test substances are sprayed on (500 l of water/ha) as an aqueous suspension (prepared from a 25% wettable powder (Example F3, b) according to WO 97/34485) or emulsion (prepared from a 25% emulsion concentrate (Example F1, c)), corresponding to a dosage of 2 kg of AS/ha. The test plants are then grown under optimum conditions in a greenhouse. After a test period of 3 weeks, the test is evaluated with a nine-level scale of ratings (1=complete damage, 9=no effect). Ratings of 1 to 4 (in particular 1 to 3) mean good to very good herbicidal action.

[2] = system: Monocotyledonous and dicotyledonous test plants; assay: Example B2: post-emergence herbicidal action, 2 kg of AS/ha; format: in vivo; set-up: key: 1 = complete damage, 9 = no effect; conditions: 4- to 6-leaf stage, about 18 days, scale 1-9; for post-emergence action rating, Avena: test plant Avena; for post-emergence action rating, Setaria: test plant Setaria; for post-emergence action rating, Sinapis: test plant Sinapis; for post-emergence action rating, Solanum: test plant Solanum; for post-emergence action rating, Stellaria: test plant Stellaria
Protocol: Monocotyledonous and dicotyledonous test plants are grown in plastic pots with standard soil in a greenhouse and, in the 4- to 6-leaf stage, are sprayed with an aqueous suspension of the test substances of the formula 1, prepared from a 25% wettable powder (Example F3, b) according to WO 97134485) or with an emulsion of the test substances of the formula I, prepared from a 25% emulsion concentrate (Example F1, c) according to WO 97/34485), corresponding to a dosage of 2 kg of AS/ha (500 l of water/ha). The test plants are then grown further under optimum conditions in a greenhouse. After a test period of about 18 days, the test is evaluated with a nine-level scale of rating (1=complete damage, 9=no effect). Ratings of 1 to 4 (in particular 1 to 3) mean good to very good herbicidal action. In this test, the compounds of the formula I show strong herbicidal action.

| SMILES | pre-emergence action rating, Avena [1] | pre-emergence action rating, Cyperus [1] | pre-emergence action rating, Setaria [1] | pre-emergence action rating, Sinapis [1] | pre-emergence action rating, Solanum [1] | pre-emergence action rating, Stellaria [1] | post-emergence action rating, Avena [2] | post-emergence action rating, Setaria [2] | post-emergence action rating, Sinapis [2] | post-emergence action rating, Solanum [2] | post-emergence action rating, Stellaria [2] |
| --- | --- | --- | --- | --- | --- | --- | --- | --- | --- | --- | --- |
| CCN(CC)C(=O)OC1=C(C(=O)c2ccc(C(F)(F)F)nc2C)C(=O)C2CCC1C2 (centres unmarked) [Compound 1.41] | 2 | 1 | 1 | 1 | 1 | 1 | 1 | 1 | 1 | 1 | 1 |
| O=C(C1=C(O)C2CCC(C2)C1=O)c1ccc(C(F)(F)F)nc1C1CC1 (centres unmarked) [Compound 1.042] | 4 | 2 | 2 | 1 | 1 | 4 | 2 | 2 | 1 | 2 | 2 |
| COc1nc(C(F)(F)F)ccc1C(=O)C1=C(O)C2CCC(C2)C1=O (centres unmarked) [Compound 1.043] | 4 | 2 | 1 | 2 | 1 | 2 | 2 | 2 | 1 | 2 | 2 |
| Cc1nc(C(F)(F)C(F)(F)F)ccc1C(=O)C1=C(O)C2CCC(C2)C1=O (centres unmarked) [Compound 1.109] | 2 | 2 | 2 | 2 | 1 | 3 | 2 | 2 | 1 | 2 | 2 |
| Cc1nc(C(F)(F)Cl)ccc1C(=O)C1=C(O)C2CCC(C2)C1=O (centres unmarked) [Compound 1.195] | 2 | 1 | 1 | 1 | 1 | 2 | 2 | 2 | 1 | 2 | 2 |
| Cc1cc(C(=O)C2=C(O)C3CCC(C3)C2=O)c(C)nc1C(F)(F)F (centres unmarked) [Compound 1.313] | 3 | 1 | 2 | 1 | 1 | 2 | 2 | 2 | 1 | 2 | 2 |
| Cc1nc(C(F)(F)F)ccc1C(=O)C1=C([O-])C2CCC(C2)C1=O.[K+] (centres unmarked) [Compound 1.376] | 2 | 1 | 1 | 2 | 1 | 2 | 1 | 2 | 1 | 2 | 2 |
| Cc1nc(C(F)(F)F)ccc1C(=O)C1=C(Sc2ccccc2)C2CCC(C2)C1=O (centres unmarked) [Compound 1.381] | 4 | 1 | 2 | 2 | 1 | 1 | 2 | 2 | 2 | 2 | 2 |
| CC(=O)OC1=C(C(=O)c2ccc(C(F)(F)F)nc2C)C(=O)C2CCC1C2 (centres unmarked) [Compound 1.401] | 2 | 1 | 1 | 2 | 1 | 2 | 2 | 2 | 2 | 2 | 2 |
| Cc1nc(C(F)(F)F)ccc1C(=O)C1=C(OC(=O)c2ccccc2)C2CCC(C2)C1=O (centres unmarked) [Compound 1.402] | 2 | 1 | 1 | 2 | 1 | 2 | 2 | 2 | 1 | 2 | 2 |
| Cc1nc(C(F)(F)F)ccc1C(=O)C1=C(OC(=O)C2CC2)C2CCC(C2)C1=O (centres unmarked) [Compound 1.403] | 2 | 1 | 1 | 1 | 1 | 2 | 2 | 2 | 1 | 2 | 2 |
| CCC(=O)OC1=C(C(=O)c2ccc(C(F)(F)F)nc2C)C(=O)C2CCC1C2 (centres unmarked) [Compound 1.404] | 2 | 1 | 1 | 2 | 1 | 2 | 2 | 2 | 1 | 1 | 2 |
| C=CC(=O)OC1=C(C(=O)c2ccc(C(F)(F)F)nc2C)C(=O)C2CCC1C2 (centres unmarked) [Compound 1.405] | 2 | 1 | 1 | 1 | 1 | 2 | 2 | 2 | 1 | 2 | 2 |
| CC=CC(=O)OC1=C(C(=O)c2ccc(C(F)(F)F)nc2C)C(=O)C2CCC1C2 (centres unmarked) [Compound 1.406] | 2 | 1 | 1 | 1 | 1 | 2 | 2 | 2 | 1 | 1 | 2 |
| CCOC(=O)OC1=C(C(=O)c2ccc(C(F)(F)F)nc2C)C(=O)C2CCC1C2 (centres unmarked) [Compound 1.409] | 1 | 1 | 1 | 1 | 1 | 1 | 2 | 1 | 1 | 1 | 2 |
| Cc1nc(C(F)(F)C(F)(F)C(F)(F)C(F)(F)F)ccc1C(=O)C1=C(O)C2CCC(C2)C1=O (centres unmarked) [Compound 1.411] | 3 | 2 | 1 | 2 | 1 | 2 | 2 | 2 | 1 | 2 | 2 |
